The first assay has as its target T1, TRF1 (Mus musculus, UniProt P70371).
T1 construct: endogenous in cells; host or cells: CHA9.3 primary murine lung cancer cell line
T1 sequence (P70371 1-421): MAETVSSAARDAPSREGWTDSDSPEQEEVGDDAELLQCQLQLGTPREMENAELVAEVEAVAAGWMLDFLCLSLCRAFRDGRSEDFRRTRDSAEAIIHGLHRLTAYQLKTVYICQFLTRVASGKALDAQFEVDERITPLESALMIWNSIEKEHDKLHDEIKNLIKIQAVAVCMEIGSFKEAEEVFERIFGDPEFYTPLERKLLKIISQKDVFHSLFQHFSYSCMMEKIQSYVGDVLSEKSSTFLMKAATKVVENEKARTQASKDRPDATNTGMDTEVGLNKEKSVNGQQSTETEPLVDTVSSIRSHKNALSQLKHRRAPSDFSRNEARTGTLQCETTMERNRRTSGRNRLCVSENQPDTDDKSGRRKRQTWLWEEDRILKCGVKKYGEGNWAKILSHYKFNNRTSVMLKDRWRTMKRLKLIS
The assay can be described thus: Measurement of TRF1 levels at telomere by immunofluorescence. The settings on record: CHA9.3 cells (primary murine lung cancer cell line), compound at 10 µM, 24 hours, duplicates. In kind it is cell-based. As for the experimental part: Assay was performed in CHA9.3, a primary murine cell line derived from a lung cancer. (Garcia-Beccaria et al., 2015). Cells were grown in DMEM (Gibco) supplemented with 10% FBS (fetal bovine serum), 1% penicillin/estreptomicen (Someglas 100U/ml) and 0.5% Amphotericin B (Gibco). Cells were incubated at 37 °C with 5% CO2. Cells were trypsinized with Trypsin-EDTA (Sigma) and washed with PBS (BioWhittaker) before counting and plating.
Cells were seeded in 10000 cells per 150 µl per well into black 96-well plates (Falcon) and incubated for 16 h at 37°C, 5% CO2. On day two, duplicates of each compound at 10 µM in DMSO were tested. The compounds were added to duplicate wells in 96-well cell plates using a FX BECKMAN robot (BeckmanCoulter) and were incubated at 37°C under CO2 atmosphere. After 24 hours, relative levels of TRF1 at telomeres were quantified by immunofluorescence. A rat monoclonal antibody against mouse TRF1 developed by the Monoclonal antibody unit at CNIO was used to detect endogenous TRF1.
First cells were fixed with 4 % formaldehyde (Sigma) in PBS (Alaos) during 13 minutes at room temperature (RT). After removal of the medium, cells were washed twice with PBS 10 minutes. Cells were permeabilized with a solution 0.2%Triton X-100 (Sigma) in PBS during 10 minutes at RT. After two more washes with PBS, cells were incubated with a solution 0.1%NaCitrate (Fluka) /0.1 %Triton X100 during 5 minutes at RT. After, two more washes with PBS cells were blocked with a solution 3% BSA (Sigma) in PBS-T, PBS with 0.05% Tween20 (Sigma), during 3 o 4 hours. Then, cells were incubated o/n at 4 °C with a dilution 1:750 of anti TRF1 antibody. After two washes of 10 minutes with PBS-T, cells were incubated with secondary antibody anti-rat 555 (Alexa Fluor) (1 :500) during 1 hour at RT: Then, 3 washes with PBS-T (0.05%) of 10 minutes and a last wash with PBS1X were performed. Nuclear staining was performed with Hoechst (Invitrogen) at de […] in PBS1X during10 minutes.
For quantification of TRF1 foci intensity, pictures of fixed cells were automatically acquired from each well by the Opera High Content Screening (HCS) system (Perkin Elmer). Forty images of random fields per well, with a 40xmagnification lens, were taken under non-saturating conditions. At least 1 × 10^3 cells were analyzed for each well. Briefly, images were segmented using the DAPI staining to generate masks matching cell nuclei from which-TRF1 foci were analyzed. Automatic analysis was performed with Acapela v2.0 software. Quantification of the inhibition of TRF1 levels at telomeres was performed with Pipeline platform.
What is called inhibition is the relative decrease from the control value, in per cent. Read a low inhibition as a weak effect. Compound `Cc1cnc(Nc2nc([C@@H](N)Cc3ccccc3)cs2)nc1` [Compound 36] displayed an inhibition at 10 µM of 18.4%.
For the compound `Nc1cccc(-c2sc(Nc3ncccn3)nc2C(N)Cc2ccccc2Br)c1` (centres unmarked) [Compound 78], the inhibition at 10 µM worked out at 27.8%.
In the case of `COc1cc(C)nc(Nc2nc([C@@H](N)Cc3ccccc3)cs2)n1` [Compound 37], the inhibition at 10 µM stood at 9.77%.
Take `C#CCCC(=O)Nc1cnc(Nc2nc(C(N)Cc3ccc(F)cc3)cs2)nc1` (centres unmarked) [Compound 74]: the inhibition at 10 µM is 15.5%.
`NC(Cc1ccccc1)c1csc(Nc2ncccn2)n1` (racemic) [Compound 1] showed an inhibition at 10 µM of 27.3%.
The compound `N[C@@H](Cc1ccccc1)c1nc(Nc2ncccn2)sc1-c1cccc(O)c1` [Compound 89] displayed an inhibition at 10 µM of 23%.
Take `NC(Cc1ccc([N+](=O)[O-])cc1)c1csc(Nc2ncccn2)n1` (racemic) [Compound 14]: 10 µM produced 0% inhibition.
As to `NC(Cc1ccccc1Br)c1csc(Nc2ncccn2)n1` (single isomer, unassigned) [Compound 3], the inhibition at 10 µM was found to be 25.4%.
The compound `C#CCOc1ccc(CC(N)c2csc(Nc3ncccn3)n2)cc1` (racemic) [Compound 20] showed an inhibition at 10 µM of 19.4%.
Still for that read-out and setting: the value for `C#CCOc1cccc(CC(N)c2csc(Nc3ncccn3)n2)c1` (racemic) [Compound 17] was 31.6%; that for `NC(Cc1cccc(Cl)c1)c1csc(Nc2ncccn2)n1` (racemic) [Compound 12] was 27.9%.
For `C#Cc1ccc(C[C@H](N)c2csc(Nc3ncccn3)n2)cc1` [Compound 69], testing at 10 µM gave an inhibition of 7.7%.
Consider `C#CCOc1cccc(-c2sc(Nc3ncccn3)nc2[C@H](N)Cc2ccccc2)c1` [Compound 123], for which the inhibition at 10 µM came out at 10.9%.
`Nc1ccc(CC(N)c2csc(Nc3ncccn3)n2)cc1` (centres unmarked) [Compound 52] displayed an inhibition at 10 µM of 10.5%.
On the same count and under the same terms, the value for `C#Cc1cccc(CC(N)c2csc(Nc3ncccn3)n2)c1` (racemic) [Compound 58] was 27.1%; that for `C#Cc1cnc(Nc2nc(C(N)Cc3ccccc3)cs2)nc1` (racemic) [Compound 62] was 11.4%; that for `C#Cc1cnc(Nc2nc([C@@H](N)Cc3ccccc3)cs2)nc1` [Compound 64] was 6.41%.
`C#CCOc1cccc(CC(N)c2csc(Nc3ncccn3)n2)c1` (single isomer, unassigned) [Compound 18]: at 10 µM the inhibition was 33.8%.
In turn, `COCCOc1cccc(-c2sc(Nc3ncccn3)nc2[C@@H](N)Cc2ccccc2)c1` [Compound 84] had an inhibition at 10 µM of 16.3%.
The compound `C#CCOc1cccc(C[C@H](N)c2csc(Nc3ncccn3)n2)c1` [Compound 19] had an inhibition at 10 µM of 27.5%.
On the same count and under the same terms, the value for `CC(=O)Nc1cccc(-c2sc(Nc3ncccn3)nc2C(N)Cc2ccccc2)c1` (centres unmarked) [Compound 83] was 17.2%.
Take `NC(Cc1ccccc1Br)c1csc(Nc2ncccn2)n1` (racemic) [Compound 2]: the inhibition at 10 µM is 29.8%.
`C#Cc1ccc(C[C@@H](N)c2csc(Nc3ncccn3)n2)cc1` [Compound 68]: 10 µM produced 31.2% inhibition.
On the same count and under the same terms, the value for `C#Cc1cnc(Nc2nc([C@H](N)Cc3ccccc3)cs2)nc1` [Compound 63] was 11.7%; that for `N[C@@H](Cc1ccccc1)c1csc(Nc2ncc(Br)cn2)n1` [Compound 34] was 21%.
Turning to `C#Cc1cccc(C[C@@H](N)c2csc(Nc3ncccn3)n2)c1` [Compound 60], at 10 µM the inhibition was 24.8%.
`C#Cc1ccc(CC(N)c2csc(Nc3ncccn3)n2)cc1` (racemic) [Compound 66] showed an inhibition at 10 µM of 18.1%.
Compound `C#CCOc1cccc(-c2sc(Nc3ncccn3)nc2C(N)Cc2ccccc2)c1` (racemic) [Compound 87] came in with an inhibition at 10 µM of 17.5%.
Take `Cc1ccnc(Nc2nc([C@@H](N)Cc3ccccc3)cs2)n1` [Compound 33]: 10 µM produced 30% inhibition.
Same read-out and setting: the figure for `NC(Cc1cccc(O)c1)c1csc(Nc2ncccn2)n1` (centres unmarked) [Compound 105] is 29.5%; for `N[C@@H](Cc1ccccc1)c1nc(Nc2ncccn2)sc1Br` [Compound 88] it is 29.9%.
For `NC(Cc1cccc(Br)c1)c1csc(Nc2ncccn2)n1` (racemic) [Compound 5], the inhibition at 10 µM was found to be 29.8%.
Still for that read-out and setting: the value for `NC(Cc1cccc(Br)c1)c1csc(Nc2ncccn2)n1` (single isomer, unassigned) [Compound 6] was 28.3%.
Take `C#Cc1cccc(-c2sc(Nc3ncccn3)nc2C(N)Cc2ccccc2)c1` (centres unmarked) [Compound 81]: the inhibition at 10 µM worked out at 19.7%.
With `C#CCCCCOc1ccc(CC(N)c2csc(Nc3ncccn3)n2)cc1` (racemic) [Compound 26], at 10 µM the inhibition was 0%.
The compound `N[C@@H](Cc1ccccc1)c1csc(Nc2ccccn2)n1` [Compound 35] registered an inhibition at 10 µM of 20.5%.
`NC(Cc1ccc(Br)cc1)c1csc(Nc2ncccn2)n1` (racemic) [Compound 8]: the inhibition at 10 µM was found to be 32.4%.
Compound `NC(Cc1ccc(O)cc1)c1csc(Nc2ncccn2)n1` (centres unmarked) [Compound 120] gave an inhibition at 10 µM of 20%.
The same measure, in the same setting: the value for `C#CCOc1cccc(-c2sc(Nc3ncccn3)nc2[C@@H](N)Cc2ccccc2)c1` [Compound 122] was 5.33%; that for `C#Cc1cccc(C[C@H](N)c2csc(Nc3ncccn3)n2)c1` [Compound 61] was 30.5%.

Still in this assay, the particulars now being: CHA9.3 cells (primary murine lung cancer cell line), compound at 10 µM, 24 hours, duplicates; 10 µM.
For the compound `NC(Cc1cccc(Br)c1)c1csc(Nc2ncccn2)n1` (single isomer, unassigned) [Compound 7], the “% inhibition of TRF1 levels” value is recorded as 28.55%.
For the compound `NC(Cc1ccccc1Br)c1csc(Nc2ncccn2)n1` (single isomer, unassigned) [Compound 4], the “% inhibition of TRF1 levels” value is 24.91%.

The assay is the same for the next values; noted with them: qualitative SAR statement in the description.
For the compound `COc1cc(C)nc(Nc2nc([C@@H](N)Cc3ccccc3)cs2)n1` [Compound 37], the “TRF1 inhibition activity (active / inactive, in words)” value is on record as “active”.
Take `C#CCOc1ccc(CC(N)c2csc(Nc3ncccn3)n2)cc1` (racemic) [Compound 20]: the “TRF1 inhibition activity (active / inactive, in words)” value was “active”.
Consider `C#CCOc1cccc(CC(N)c2csc(Nc3ncccn3)n2)c1` (racemic) [Compound 17], for which the “TRF1 inhibition activity (active / inactive, in words)” value is reported as “active”.
The same measure, in the same setting: the entry for `C#CCOc1cccc(CC(N)c2csc(Nc3ncccn3)n2)c1` (single isomer, unassigned) [Compound 18] is “active”.
Turning to `C#CCOc1cccc(C[C@H](N)c2csc(Nc3ncccn3)n2)c1` [Compound 19], the “TRF1 inhibition activity (active / inactive, in words)” value is “active”.

(Values after patent EP3623370A1, “NOVEL TRF1 MODULATORS AND ANALOGUES THEREOF” (Fundación del Sector Público Estatal Centro Nacional de …, priority 2018, dated 2020).)
